Experimental data published in publication PMC9916883, “Betaine- and L-Carnitine-Based Ionic Liquids as Solubilising and Stabilising Agents for the Formulation of Antimicrobial Eye Drops Containing Diacerein” (International Journal of Molecular Sciences, 2023).
Values after ≈ are worked out from the molar mass of the structure shown. Read-outs that look alike come from different tables or passages of the source.

How the values were obtained:
P. aeruginosa ATCC 27853 [1] = test: Biofilm inhibition assay (crystal violet); format: cell-based, Pseudomonas aeruginosa; conditions: any of the concentrations tested (3.12, 6.25, 12.5 μg/mL)
Experimental: (§1) After overnight growth in LB, cultures of P. aeruginosa ATCC 27853 and S. aureus W4 were diluted 1:100 in LB or in 50% tryptone soy broth (TSB, Oxoid) supplemented with 0.25% glucose (Sigma), respectively. The bacterial suspensions were dispensed into flat-bottomed polystyrene 96-well microplates (Corning Costar, Lowell, MA, USA) in the presence of sub-MIC concentrations of Rhe and DIA (3.12, 6.25, and 12.5 μg/mL). A sample containing 0.8 DMSO % (corresponding to the highest concentration of DMSO tested) was used as a control. The microplates were incubated statically at 37 °C for 24 h, and the biofilm biomass was estimated by CV (Sigma-Aldrich) staining assay, as previously described.

S. aureus W4 = test: Biofilm inhibition assay (crystal violet); format: cell-based, Staphylococcus aureus; conditions: any of the concentrations tested (3.12, 6.25, 12.5 μg/mL)
Experimental: as §1

[2] = Osmolality of eye drops (osmometer); format: physicochemical; conditions: eye drops in CB
Experimental: Male New Zealand albino rabbits weighing approximately 2.6-3 Kg, kept in standard housing conditions, were used for in vivo studies. The animals were treated as prescribed in the guidelines of the European Community Council Directive 2010/63. The animal protocol was approved by the Italian Ministry of University and Research (authorisation n. 192/2019-PR). The eye drops were prepared in CB (200 mOsm/kg). […] (588 mOsm/kg). A suspension of plain DIA (0.34 M) in CB was used as a reference sample (230 mOsm/kg). The samples' osmolality was checked using a Roebling osmometer (calibrated with NaCl 300 mOsm/kg H2O).

[3] = Phase solubility study (apparent solubility of DIA and Rhe with ILs or HP-β-CD); format: physicochemical; conditions: 25 °C, thermodynamic from solid, read-out: saturation solubility
Experimental: The increase in the apparent solubility of both DIA and Rhe in the presence of the ILs was evaluated. Briefly, aqueous solutions of the ILs were prepared in the range of 0–200 mg/mL, and an excess of either DIA or Rhe was added to each vial. The samples were then incubated for 30 min at 25°C, and the undissolved drug was removed by centrifugation at […] for 15 min (Hettich Mikro 120 centrifuge). […] The drug concentration was measured by UV–Vis analysis. The DIA phase solubility study was also compared to the phase solubility study of DIA in the presence of HP-β-CD as a reference solubility/stability-enhancing excipient. […] The complexation K was calculated through Higuchi and Connors’ method, as previously reported.
The size distribution and zeta potential values of the ILs’ aggregates in aqueous solutions were evaluated by using a Zetasizer Nano ZS (Malvern) at 25 °C. The samples were prepared by adding an excess of either DIA or Rhe (5 mg/mL) to the aqueous IL solutions, incubating them for 30 min at 25 °C, and finally removing the excess drugs by centrifugation. […] In contrast, for PB solutions, the solutions were prepared in water, and […] of 100 mM pH 7 phosphate buffer was added per 1 mL of aqueous solution, directly in the cuvette, before the dynamic light scattering (DLS) analysis started. The concentrations of the solubilised drug were determined by UV–Vis analysis.

[4] = system: BALB/3T3 clone A31 fibroblast cells; test: Cytotoxicity screening (WST-1); format: cell-based, murine; conditions: Mus musculus, 4 h incubation, read-out: IC50 of cell viability
Experimental: BALB/3T3 clone A31 fibroblast cells were grown in Dulbecco’s Modified Eagle Medium (DMEM), supplemented with 2 mM L-glutamine, 1% penicillin/streptomycin, and 10% bovine calf serum. Cells were grown in a CO2 incubator (Heracell 150i series) at 37 °C and 5% CO2, with cells sub-cultured at 80–90% confluency. The cell monolayers were rinsed with PBS and treated with trypsin–EDTA to detach the cells before their resuspension in fresh media. A subconfluent monolayer of BALB/3T3 clone A31 fibroblast cells was trypsinised, centrifuged at 1000 rpm for 5 min, resuspended in growth medium, and counted.
A cytotoxicity screening was carried out for both ILs (range […]), as well as DIA and Rhe (0.5–200 mg/mL). Briefly, BALB/3T3 clone A31 fibroblast cells were seeded in each well of 96-well plates at a seeding density of 6 × 10^3 cells/well for 24 h, until 60–70% confluence was reached. After 24 h, the medium was then removed from each well and replaced with DMEM containing the samples.
After 4 h of incubation, the media were removed, replaced with fresh medium containing 10% WST-1 reagent solution, and maintained for 4 h at 37° C with 5% CO2. Afterwards, formazan dye absorbance was quantified at 450 nm with the reference wavelength at 655 nm by using a multilabel reader (BioTek 800/TS, Thermo Scientific).

P. aeruginosa ATCC 27853 [5] = test: Killing assay; format: cell-based, Pseudomonas aeruginosa; conditions: 3 h incubation in 5% TSB; DIA 0.34 M, ILs 0.27 M
Experimental: To this end, the bacterial strains were grown in TSB until the exponential phase, and approximately 5 × 10^4 CFU/mL-contained in 10 μL-was added to 5 μL of TSB, 35 μL of water, and 50 μL of one of the following solutions corresponding to the eye drop compositions tested in vivo: Bet6 or Carn6 with 0.27 M or 0.34 M DIA, plain DIA (0.34 M) solution, or plain Bet6/plain Carn6, both at 0.27 M. All solutions were prepared in CB. The samples were incubated at 37 °C with shaking for 3 h. A sample containing 0.6% DMSO (corresponding to the highest concentration of DMSO tested) was used as a control. Following incubation, the samples were diluted 10-fold in LB and plated on tryptone soy agar (TSA, Oxoid) to determine the number of CFU. Bactericidal activity was defined as a reduction of at least 3 Log10 in the number of viable bacteria as compared to the inoculum.

osmolality [2]: 230 mOsm/kg
solubility at 30 min ([3]; Bet6 solutions in citrate buffer, pH 5, aqueous with cosolvent or surfactant or cyclodextrin, in Bet6 solutions): 1350 µg/mL (≈ 3670 µM)
solubility at 30 min ([3]; aqueous Carn6 solutions, aqueous with cosolvent or surfactant or cyclodextrin, in Carn6 solutions): 680 µg/mL (≈ 1850 µM)
Structure (SMILES): CC(=O)Oc1cccc2c1C(=O)c1c(OC(C)=O)cc(C(=O)O)cc1C2=O [DIA, diacerein]
biofilm formation (CV staining, OD 570 nm), difference vs control (P. aeruginosa ATCC 27853 [1]): not statistically significant
biofilm formation (CV staining, OD 570 nm) (S. aureus W4): no significant effects
IC50 [4]: 116 µg/mL (≈ 316 µM)
bactericidal effect (P. aeruginosa ATCC 27853 [5]): no evident bactericidal effect
